Laboratory results taken from publication PMC3865603 (Cancer chemotherapy and pharmacology, 2011).

Test: Plasma pharmacokinetics, non-compartmental
Assay type: in vivo, human
[1] = KOS-1584 0.8 mg/m^2, 3 h infusion, cycle 1, N=1
[2] = KOS-1584 1.5 mg/m^2, 3 h infusion, cycle 1, N=4
[3] = KOS-1584 2.5 mg/m^2, 3 h infusion, cycle 1, N=4
[4] = KOS-1584 3.7 mg/m^2, 3 h infusion, cycle 1, N=3
[5] = KOS-1584 5.0 mg/m^2, 3 h infusion, cycle 1, N=4
[6] = KOS-1584 6.5 mg/m^2, 3 h infusion, cycle 1, N=6
[7] = KOS-1584 8.5 mg/m^2, 3 h infusion, cycle 1, N=3
[8] = KOS-1584 11.3 mg/m^2, 3 h infusion, cycle 1, N=4
[9] = KOS-1584 15.0 mg/m^2, 3 h infusion, cycle 1, N=4
[10] = KOS-1584 20.0 mg/m^2, 3 h infusion, cycle 1, N=5
[11] = KOS-1584 27 mg/m^2, 3 h infusion, cycle 1, N=4
[12] = KOS-1584 36 mg/m^2, 3 h infusion, cycle 1, N=16
[13] = KOS-1584 42 mg/m^2, 3 h infusion, cycle 1, N=6
[14] = KOS-1584 48 mg/m^2, 3 h infusion, cycle 1, N=2
[15] = all cohorts 0.8-48 mg/m^2, cycle 1

SMILES: C/C1=C/C[C@@H](/C(C)=C/c2csc(C)n2)OC(=O)C[C@H](O)C(C)(C)C(=O)[C@H](C)[C@@H](O)[C@@H](C)/C=C/C1 [KOS-1584, (E)-9,10-didehydroepothilone D]
- linearity of pharmacokinetics (0.8-48 mg/m^2): linear pharmacokinetics
- KOS-1584 AUC [1]: 26.7 ng·h/mL
- KOS-1584 CL [1]: 30.0 L/h/m^2
- KOS-1584 Cmax [1]: 5.73 ng/mL
- KOS-1584 Tmax [1]: 3.0 ng/mL
- KOS-1584 Vλ [1]: 541 L/m^2
- KOS-1584 t1/2 [1]: 12.5 h
- KOS-1584 AUC [2]: 64.9 ± 16.3 ng·h/mL
- KOS-1584 CL [2]: 24.6 ± 7.63 L/h/m^2
- KOS-1584 Cmax [2]: 9.29 ± 4.16 ng/mL
- KOS-1584 Tmax [2]: 2.0 ± 1.2 ng/mL
- KOS-1584 Vλ [2]: 553 ± 146 L/m^2
- KOS-1584 t1/2 [2]: 16.0 ± 3.96 h
- KOS-1584 AUC [3]: 170 ± 2.21 ng·h/mL
- KOS-1584 CL [3]: 14.9 ± 1.95 L/h/m^2
- KOS-1584 Cmax [3]: 18.0 ± 5.24 ng/mL
- KOS-1584 Tmax [3]: 3.0 ± 0.02 ng/mL
- KOS-1584 Vλ [3]: 385 ± 109 L/m^2
- KOS-1584 t1/2 [3]: 18.2 ± 6.37 h
- KOS-1584 AUC [4]: 359 ± 40.7 ng·h/mL
- KOS-1584 CL [4]: 10.4 ± 1.27 L/h/m^2
- KOS-1584 Cmax [4]: 32.9 ± 10.8 ng/mL
- KOS-1584 Tmax [4]: 3.0 ± 0.06 ng/mL
- KOS-1584 Vλ [4]: 279 ± 60.1 L/m^2
- KOS-1584 t1/2 [4]: 18.7 ± 3.64 h
- KOS-1584 AUC [5]: 468 ± 140 ng·h/mL
- KOS-1584 CL [5]: 11.3 ± 2.84 L/h/m^2
- KOS-1584 Cmax [5]: 41.9 ± 13.4 ng/mL
- KOS-1584 Tmax [5]: 2.61 ± 0.74 ng/mL
- KOS-1584 Vλ [5]: 269 ± 104 L/m^2
- KOS-1584 t1/2 [5]: 16.0 ± 2.53 h
- KOS-1584 AUC [6]: 566 ± 159 ng·h/mL
- KOS-1584 CL [6]: 12.4 ± 2.91 L/h/m^2
- KOS-1584 Cmax [6]: 41.9 ± 11.3 ng/mL
- KOS-1584 Tmax [6]: 2.49 ± 0.76 ng/mL
- KOS-1584 Vλ [6]: 348 ± 79.9 L/m^2
- KOS-1584 t1/2 [6]: 19.9 ± 4.68 h
- KOS-1584 AUC [7]: 620 ± 317 ng·h/mL
- KOS-1584 CL [7]: 15.9 ± 6.34 L/h/m^2
- KOS-1584 Cmax [7]: 78.4 ± 28.8 ng/mL
- KOS-1584 Tmax [7]: 2.96 ± 0.03 ng/mL
- KOS-1584 Vλ [7]: 327 ± 190 L/m^2
- KOS-1584 t1/2 [7]: 13.7 ± 4.57 h
- KOS-1584 AUC [8]: 2,206 ± 994 ng h/mL
- KOS-1584 CL [8]: 6.28 ± 3.56 L/h/m^2
- KOS-1584 Cmax [8]: 140 ± 41.9 ng/mL
- KOS-1584 Tmax [8]: 2.60 ± 0.68 ng/mL
- KOS-1584 Vλ [8]: 267 ± 197 L/m^2
- KOS-1584 t1/2 [8]: 28.5 ± 6.77 h
- KOS-1584 AUC [9]: 2,204 ± 946 ng h/mL
- KOS-1584 CL [9]: 7.69 ± 2.89 L/h/m^2
- KOS-1584 Cmax [9]: 220 ± 84.7 ng/mL
- KOS-1584 Tmax [9]: 2.97 ± 0.03 ng/mL
- KOS-1584 Vλ [9]: 263 ± 113 L/m^2
- KOS-1584 t1/2 [9]: 23.5 ± 1.77 h
- KOS-1584 AUC [10]: 2,440 ± 945 ng h/mL
- KOS-1584 CL [10]: 9.28 ± 3.56 L/h/m^2
- KOS-1584 Cmax [10]: 284 ± 153 ng/mL
- KOS-1584 Tmax [10]: 2.38 ± 0.80 ng/mL
- KOS-1584 Vλ [10]: 288 ± 165 L/m^2
- KOS-1584 t1/2 [10]: 20.2 ± 8.15 h
- KOS-1584 AUC [11]: 3,190 ± 1,490 ng h/mL
- KOS-1584 CL [11]: 10.1 ± 5.00 L/h/m^2
- KOS-1584 Cmax [11]: 259 ± 110 ng/mL
- KOS-1584 Tmax [11]: 3.10 ± 0.27 ng/mL
- KOS-1584 Vλ [11]: 434 ± 339 L/m^2
- KOS-1584 t1/2 [11]: 27.8 ± 9.08 h
- KOS-1584 AUC [12]: 5,267 ± 3,190 ng h/mL
- KOS-1584 CL [12]: 8.98 ± 4.59 L/h/m^2
- KOS-1584 Cmax [12]: 701 ± 425 ng/mL
- KOS-1584 Tmax [12]: 2.67 ± 0.58 ng/mL
- KOS-1584 Vλ [12]: 329 ± 134 L/m^2
- KOS-1584 t1/2 [12]: 27.9 ± 10.6 h
- KOS-1584 AUC [13]: 7,355 ± 4,718 ng h/mL
- KOS-1584 CL [13]: 8.52 ± 5.43 L/h/m^2
- KOS-1584 Cmax [13]: 1,066 ± 513 ng/mL
- KOS-1584 Tmax [13]: 2.95 ± 0.04 ng/mL
- KOS-1584 Vλ [13]: 277 ± 165 L/m^2
- KOS-1584 t1/2 [13]: 24.1 ± 9.37 h
- KOS-1584 AUC [14]: 4,727 ± 167 ng h/mL
- KOS-1584 CL [14]: 10.1 ± 0.27 L/h/m^2
- KOS-1584 Cmax [14]: 769 ± 42.4 ng/mL
- KOS-1584 Tmax [14]: 2.92 ± 0.0 ng/mL
- KOS-1584 Vλ [14]: 349 ± 205 L/m^2
- KOS-1584 t1/2 [14]: 24.1 ± 14.7 h
- mean overall clearance [15]: 11 ± 6.17 L/h/m^2
- mean overall half-life of KOS-1584 [15]: 21.9 ± 8.75 h
- mean overall volume of distribution [15]: 327 ± 161 L/m^2
- accumulation (every 3 weeks dosing, cycles 1 and 2): no accumulation
